Assay results from article PMC11671526, “β-caryophyllene sensitizes hepatocellular carcinoma cells to chemotherapeutics and inhibits cell malignancy through targeting MAPK signaling pathway” (Frontiers in Pharmacology, 2024).
Read-outs that look alike come from different tables or passages of the source.

Tests used:
Type in all cases: cell-based, human
[1] = system: HL-7702 normal liver cells; experiment: CCK8 cell viability assay; conditions: for IC50: HL-7702, 48 h, individual treatment, read-out: IC50 (half maximal inhibitory concentration); for effect of combination with BCP (isobologram analysis): HL-7702, BCP 25-150 μM combined with DOX or DDP
Procedure: (§1) Cell viability assay using the CCK8 reagent (Bimake, Shanghai, China) was conducted according to the manufacturer’s instructions. The cell proliferation data were used to calculate the cell viability. Briefly, HepG2, SMMC-7721, and HL-7702 cells with a density of 5 × 10^3 cells/well were seeded into each well of 96-well plates and incubated overnight. […] After 48 h, 10 µL of CCK8 reagent was added to each well, followed by 2 h incubation at 37°C and measurement of absorbance at 450 nm using a microplate reader (Molecular Devices, LLC.). […] The effects of the combinatorial inhibition were visualized by isobologram analyses ([Tallarida, 2001]). […] A line was drawn to link the two IC50 points. […] The dots above, on, or below the line indicate the “antagonistic,” “additive” and “synergistic” effects, respectively. The same method was used to obtain the CI value for the cotreatment of BCP and DDP.

SMMC-7721 cells [2] = experiment: CCK8 cell viability assay; conditions: for IC50: SMMC-7721, 48 h, individual treatment, read-out: IC50 (half maximal inhibitory concentration); for effect of combination with BCP (isobologram analysis): SMMC-7721, BCP 25-150 μM combined with DOX or DDP
Procedure: as §1

HepG2 cells [3] = experiment: CCK8 cell viability assay; conditions: for IC50: HepG2, 48 h, individual treatment, read-out: IC50 (half maximal inhibitory concentration); for effect of combination with BCP (isobologram analysis): HepG2, BCP 25-150 μM combined with DOX or DDP
Procedure: as §1

SMMC-7721 cells [4] = experiment: Annexin V-FITC/PI cell apoptosis assay (flow cytometry); conditions: SMMC-7721, 48 h; BCP 150 µM, DOXL 0.2 µM, DOXH 1.5 µM, DDPL 5 µM, DDPH 30 µM
Procedure: (§2) The cell apoptosis assay was performed as previously described ([Zhong et al., 2019]; [Farooq et al., 2023]). […] Ltd., Nanjing, China). The cells were analyzed using flow cytometer (BECKMAN COULTER, cytoFLEX, United States).

HL-7702 cells = experiment: as above; conditions: HL-7702, 48 h, BCP 150 µM, DOXL 0.2 µM, DOXH 1.5 µM, DDPL 5 µM, DDPH 30 µM
Procedure: as §2

HepG2 cells [5] = experiment: as above; conditions: HepG2, 48 h; BCP 150 µM, DOXL 0.2 µM, DOXH 1.5 µM, DDPL 5 µM, DDPH 30 µM
Procedure: as §2

[6] = SMMC-7721, cotreatment with 25 μM BCP
[7] = SMMC-7721, cotreatment with 50 μM BCP
[8] = SMMC-7721, cotreatment with 75 μM BCP
[9] = SMMC-7721, cotreatment with 100 μM BCP
[10] = SMMC-7721, cotreatment with 150 μM BCP
[11] = HepG2, cotreatment with 25 μM BCP
[12] = HepG2, cotreatment with 50 μM BCP
[13] = HepG2, cotreatment with 75 μM BCP
[14] = HepG2, cotreatment with 100 μM BCP
[15] = HepG2, cotreatment with 150 μM BCP

SMILES	effect of combination with BCP (isobologram analysis) [1]	effect of combination with BCP (isobologram analysis) (SMMC-7721 cells [2])	combination index (CI) (SMMC-7721 cells [2]; [6])	combination index (CI) (SMMC-7721 cells [2]; [7])	combination index (CI) (SMMC-7721 cells [2]; [8])	combination index (CI) (SMMC-7721 cells [2]; [9])	combination index (CI) (SMMC-7721 cells [2]; [10])	effect of combination with BCP (isobologram analysis) (HepG2 cells [3])	combination index (CI) (HepG2 cells [3]; [11])	combination index (CI) (HepG2 cells [3]; [12])	combination index (CI) (HepG2 cells [3]; [13])	combination index (CI) (HepG2 cells [3]; [14])	combination index (CI) (HepG2 cells [3]; [15])	apoptotic rate (SMMC-7721 cells [4])	apoptotic rate (HepG2 cells [5])	further results
N.N.[Cl][Pt][Cl] [DDP, cisplatin]	additive	synergistic	0.59	0.57	0.52	0.51	0.58	synergistic	0.74	0.71	0.66	0.68	0.88	7.67% ± 0.46%	11.40% ± 0.52%	IC50 [1]: 11.5 ± 0.82 µM; combination index (CI) ([1]; HL-7702, cotreatment with 25 μM BCP): 1.04; combination index (CI) ([1]; HL-7702, cotreatment with 50 μM BCP): 0.95; combination index (CI) ([1]; HL-7702, cotreatment with 75 μM BCP): 1.01; combination index (CI) ([1]; HL-7702, cotreatment with 100 μM BCP): 0.89; combination index (CI) ([1]; HL-7702, cotreatment with 150 μM BCP): 0.92; fold reduction of IC50 in cotreatment from individual treatment ([1]; HL-7702, cotreatment with 150 μM BCP vs DOX or DDP alone): less than 1.5 fold; IC50 (SMMC-7721 cells [2]): 33.7 ± 1.43 µM; fold lower IC50 in cotreatment than in treatment alone (SMMC-7721 cells [2]; SMMC-7721, cotreatment with 150 μM BCP vs DOX or DDP alone): over 9 fold; IC50 (HepG2 cells [3]): 27.4 ± 2.59 µM; fold lower IC50 in cotreatment than in treatment alone (HepG2 cells [3]; HepG2, cotreatment with 150 μM BCP vs DOX or DDP alone): over 9 fold; apoptotic rate (HL-7702 cells; listed as DDPH): 28.52% ± 1%; apoptotic rate (HL-7702 cells; listed as DDPL): 17.86% ± 0.69%
COc1cccc2c1C(=O)c1c(O)c3c(c(O)c1C2=O)C[C@@](O)(C(=O)CO)C[C@@H]3O[C@H]1C[C@H](N)[C@H](O)[C@H](C)O1 [DOX, doxorubicin]	additive	synergistic	0.48	0.53	0.50	0.55	0.65	synergistic	0.53	0.58	0.56	0.65	0.85	8.74% ± 1.32%	13.40% ± 0.65%	IC50 ([1]; Homo sapiens, L02): 0.82 ± 0.09 µM; IC50 (SMMC-7721 cells [2]; Homo sapiens): 1.76 ± 0.13 µM; IC50 (HepG2 cells [3]; Homo sapiens): 1.99 ± 0.2 µM; apoptotic rate (HL-7702 cells; listed as DOXH): 33.83% ± 1.27%; apoptotic rate (HL-7702 cells; listed as DOXL): 13.04% ± 0.57%
